Assay results taken from patent EP1149096B1, “TRICYCLIC PYRIDINE N-OXIDES VASOPRESSIN AGONISTS” (Wyeth, priority 1999, dated 2000).

Test system: Vasopressin V2
Assay: Vasopressin V2 agonist effects in normal conscious water-loaded rats
Format: in vivo
Details: oral dose of 10 mg/kg, urine collected for four hours after dosing, Sprague-Dawley (CD) rats, water-loaded 30 ml/kg; for Changes in Urinary Osmolality: Percent changes in osmolality vs. control; for Urine Volume (% decrease): Percent decrease in urine volume vs. control
From the text: Vasopressin V2 Agonist Effects of Test Compounds in Normal Conscious Water-Loaded Rats:
Male or female normotensive Sprague-Dawley rats (Charles River Laboratories, Inc., Kingston, NY) of 350-500 g body weight were supplied with standard rodent diet (Purina Rodent Lab. Chow 5001) and water ad libitum. On the day of test, rats were placed individually into metabolic cages equipped with devices to separate the feces from the urine and containers for collection of urine. A test compound or a reference agent was given at an oral dose of 10 mg/kg in a volume of 10 ml/kg. The vehicle used was 20% dimethylsulfoxide (DMSO) in 2.5% preboiled corn starch. Thirty minutes after dosing the test compound, rats were gavaged with water at 30 ml/kg into the stomach using a feeding needle. During the test, rats were not provided with water or food. Urine was collected for four hours after dosing of the test compound. At the end of four hours, urine volume was measured. Urinary osmolality was determined using a Fiske One-Ten Osmometer (Fiske Associates, Norwood, MA, 02062) or an Advanced CRYOMATIC Osmometer, Model 3C2 (Advanced Instruments, Norwood, MA). Determinations of Na^+, K^+ and Cl^- ion were carried out using ion specific electrodes in a Beckman SYNCHRON EL-ISE Electrolyte System analyzer. The urinary osmolality should increase proportionally. In the screening test, two rats were used for each compound. If the difference in the urine volume of the two rats was greater than 50%, a third rat was used.

Row | Compound | Changes in Urinary Osmolality [%] | Urine Volume (% decrease) [%]
1 | Cc1ccn(-c2ccc(C(=O)N3Cc4ccc[n+]([O-])c4Nc4ccccc43)c(Cl)c2)n1 [Example 1, [2-Chloro-4-(3-methyl-1H-pyrazol-1-yl)-phenyl]-(6,11-dihydro-5H-pyrido[2,3-b][1,5]benzodiazepin-6-yl)-methanone-1-oxide] | 753 | 80
2 | Cc1ccn(-c2ccc(C(=O)N3Cc4ccc[n+]([O-])c4Nc4ccccc43)c(Br)c2)n1 [Example 3, [2-Bromo-4-(3-methyl-1H-pyrazol-1-yl)-phenyl]-(6,11-dihydro-5H-pyrido [2,3-b][1,5]benzodiazepin-6-yl)-methanone-1-oxide] | 747 | 90
3 | Cc1ccn(-c2ccc(C(=O)N3Cc4ccc[n+]([O-])c4Nc4ccccc43)c(C(F)(F)F)c2)n1 [Example 4, 4-[(3-Methyl-1H-pyrazol-1-yl)-2-(trifluoromethyl)-phenyl]-(6,11-dihydro-5H-pyrido[2,3-b][1,5]benzodiazepin-6-yl)-methanone 1-oxide] | 331 | 72
